According to PubChem BioAssay (NCI):
Several values for one entry are separate records, joined by “and”; a condition that tells them apart may be missing. Equal entries are not always repeated.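 Where inhibition never reached the appropriate level, the endpoint shown equals the highest concentration tested. Otherwise, values were interpolated linearly from a five-concentration, 48-hour dose response in 96-well plates. Abbreviation: GI50, concentration required for 50% inhibition of growth. The concentration for full growth arrest is given as TGI.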

What was measured:
Assay in all cases: inhibition of tumour cell growth, NCI panel, 48 h
SK-MEL-28 melanoma = test system: SK-MEL-28 melanoma
A498 renal = test system: A498 renal
SN12C renal = test system: SN12C renal
COLO 205 colon = test system: COLO 205 colon
CCRF-CEM leukemia = test system: CCRF-CEM leukemia
HT29 colon = test system: HT29 colon
SF-295 CNS = test system: SF-295 CNS
IGROV1 ovarian = test system: IGROV1 ovarian
SR leukemia = test system: SR leukemia
HCT-15 colon = test system: HCT-15 colon

Row | Structure (SMILES) | TGI (SK-MEL-28 melanoma) [µM] | TGI (A498 renal) [µM] | TGI (SN12C renal) [µM] | TGI (COLO 205 colon) | TGI (CCRF-CEM leukemia) [µM] | TGI (HT29 colon) | TGI (SF-295 CNS) [µM] | TGI (IGROV1 ovarian) [µM] | TGI (SR leukemia) [µM] | TGI (HCT-15 colon) [µM] | GI50 (SK-MEL-28 melanoma) [µM] | GI50 (A498 renal) [µM] | GI50 (SN12C renal) [µM] | GI50 (COLO 205 colon) [µM] | GI50 (CCRF-CEM leukemia) [µM] | GI50 (HT29 colon) [µM] | GI50 (SF-295 CNS) [µM] | GI50 (IGROV1 ovarian) [µM] | GI50 (SR leukemia) [µM] | GI50 (HCT-15 colon) [µM]
1 | COc1cc([N+](=O)[O-])ccc1NC(=O)C(F)(F)F | > 100 | > 100 | > 100 | > 100 µM | > 100 | > 100 µM | > 100 | > 100 | > 100 | > 100 |  |  |  |  |  |  |  |  |  | 
2 | O=C(NC1CCCCCC1)C1C(=O)N(C2CCCCCC2)C(=O)/C1=N\O (centres undefined) | 87 | 80.4 | > 100 | 31.2 µM | 87.2 | 94.2 µM | > 100 | > 100 | 54 | > 100 |  |  |  |  |  |  |  |  |  | 
3 | CC(C)=[CH][Sb]([Br])([CH]=C(C)C)([CH]=C(C)C)[CH]=C(C)C | > 100 | > 100 | > 100 | 5.89 µM | > 100 | > 100 µM | 53.4 | 66.3 | > 100 | > 100 | 11.3 | 41 | 24.7 | 1.93 | 4.8 | 15.1 | 17.3 | 5.57 | 10.9 | > 100
4 | COc1ccc(/C(=N/Nc2ccc([N+](=O)[O-])cc2)Sc2cc(Cl)c(C)cc2S(N)(=O)=O)cc1 | 16.6 | 2.68 | 4.29 | 33.3 µM | 33.9 | 6.89 µM | 8.78 | > 93.2 | 5.41 | > 40.8 | 6.57 | 0.107 | 2.2 | 8.57 | 6.45 | 2.91 | 3.31 | 9.65 | 2.17 | 7.25
5 | COC(=O)c1cc2c(c(C(=O)OC)c1O)C(=O)C=CC2=O | > 58.1 | > 55.8 | > 56.3 | > 9.1 µM and 98.8 µM | 4.31 | > 9.1 µM and 38.5 µM | > 56.3 | > 58.6 | > 22 | > 49.4 | > 9.1 | > 9.1 | > 9.1 | > 9.1 |  | 18.4 | > 9.1 | > 9.1 |  | > 9.1
6 | COc1ccc(-n2cc(-c3cc(OC)c(OC)c(OC)c3)[nH]c2=S)cc1OC | > 100 | > 100 | > 100 | > 100 µM | > 100 | > 100 µM | > 100 | > 100 | 8.76 | > 100 | > 100 | > 100 | > 100 | > 100 | > 100 | > 100 | > 100 | > 100 | 2.57 | > 100
7 | NCCCCn1c2c(c3ccccc3c1=O)C(=O)c1ccccc1-2 |  | 1.71 | 0.244 | 11 µM | 1.6 |  | 0.753 |  | 0.0486 | 0.412 | 0.671 | 0.543 | 0.0385 | 0.92 | 0.0195 | 0.163 | 0.0726 | 0.314 |  | 0.0582
8 | COC(=O)C1=C(c2ccc3c(c2)OCO3)O[C@H](c2ccc3c(c2)OCO3)[C@H]1COC(C)=O | > 100 | 59.6 | > 100 | 28.9 µM | > 100 | > 100 µM | > 100 | > 100 | > 100 | > 100 |  |  |  |  |  |  |  |  |  | 
9 | CNC1C(=O)C(C)C(O)(C(CC(C)C(O)/C=C/C=C/CNC(=O)C(C)(C)C(O)\C(C)=C/C=C\C=C\Cc2cnc(C)o2)OC)C12C(=O)OC2COC (centres undefined) (tested in a mixture with another compound) | > 100 | > 79.3 | > 82.7 | 20.2 µM | 38.5 | 20.7 µM | > 53.3 | > 26.2 | 48.1 | > 63.1 |  |  |  |  |  |  |  |  |  | 
10 | COc1ccc(C(=O)/C=C/c2cccnc2Nc2cc(OC)c(OC)c(OC)c2)cc1 | 8.29 | 13.1 | 9.69 | 6.12 µM | 6.15 | 1.6 µM | 18.9 | 21.3 | 2.43 | 3.86 | 2.7 | 1.8 | 2.43 | 1.95 | 0.711 | 0.38 | 1.71 | 3.03 | 0.0949 | 0.884
11 | CC[C@H](C)[C@H](NC(=O)[C@H]1CCCCN1C)C(=O)N(C)[C@H](CCc1nc(C(=O)N[C@@H](Cc2ccccc2)C[C@H](C)C(=O)OC)cs1)C(C)C | > 25 | 2.75 | > 25 | 0.916 µM | > 25 | 3.06 µM | > 25 | > 25 | 10.8 | > 25 | 2.06 | 0.14 | 0.773 | 0.167 | 0.265 | 0.202 | 0.459 | 0.316 | 0.0726 | 0.712
12 | CC(=O)c1ccc(NC(=O)/C(Cc2ccccn2)=N/NC(=O)C[N+](C)(C)C)cc1 | > 100 | > 100 | > 100 | > 100 µM | > 100 | > 100 µM | > 100 | > 100 | > 100 | > 100 |  |  |  |  |  |  |  |  |  | 
13 | COc1cc2c3c(n(CCCBr)c(=O)c2cc1OC)-c1ccc(NC(C)=O)cc1C3=O | > 100 | 8.47 | > 100 | > 100 µM | 19.1 | > 100 µM | 11.5 | > 100 | 12.6 | > 100 | 40.5 | 2.69 | 13.9 | 14.1 | 1.44 | 2.99 | 0.828 | 10.8 | 0.574 | 30.8
